In patent US9458137B2, “Substituted indol-5-ol derivatives and their therapeutical applications” (NantBioScience, Inc., priority 2012, dated 2016):

Assays:
[1] = test system: human K562 chronic myelogenous leukemia (CML) xenograft; experiment: K562 CML xenograft model; format: in vivo, SCID mice; details: 5-day on, two-day off for two cycles; female SCID mice
Procedure: The objective of the second study was to evaluate antitumor activities of novel multiple-kinase inhibitor NTW-3475 in human K562 chronic myelogenous leukemia (CML) xenograft model in female SCID mice.
Four to six animals were randomly assigned to study groups. Each animal was weighed, and then injected subcutaneously in the left and right flank area with 0.1 ml of 8.0×10^7 K562 cells per mL.
Each test or control animal was on a 5-day on, two-day off for two cycles treatment schedule. Tumor growth was measured with a digital hand held caliper twice weekly (once tumor emerges) prior to the first dosing and then two to three times weekly until euthanized. Animals were weighed prior to tumor cell injection, prior to dosing, two to three times weekly with tumor growth measurements, and prior to euthanasia.
FIGS. 34 and 35 depict the results of various concentrations of NTW-3456 on a scid mouse/xenograft model of CML using K562 cells.

CK1(y) = experiment: Kinase panel activity; format: biochemical, yeast; details: 0.1 μM, ATP Km
Procedure: (§1) The effect of NTW-3475 on kinase activity was tested for a wide range of kinases and is shown in Table 2: Summary Sheet, Activity % ATP Concentration: Km

GRK5(h) = GRK5(h) (Homo sapiens, UniProt P34947); experiment: Kinase panel activity; format: biochemical; details: 0.1 μM, ATP Km
Procedure: as §1

ErbB4(h) = molecular target: T1, ErbB4(h) (Homo sapiens, UniProt Q15303); experiment: Kinase panel activity; format: biochemical; details: 0.1 μM, ATP Km
T1 construct: purchased Millipore (KinaseProfiler service)
Procedure: as §1

BrSK2(h) = BrSK2(h) (Homo sapiens, UniProt Q8IWQ3); experiment: Kinase panel activity; format: biochemical; details: 0.1 μM, ATP Km
Procedure: as §1

DYRK2(h) = molecular target: T2, DYRK2(h) (Homo sapiens, UniProt Q92630); experiment: Kinase panel activity; format: biochemical; details: 0.1 μM, ATP Km
T2 construct: purchased Millipore (KinaseProfiler service)
T2 sequence (Q92630 whole entry): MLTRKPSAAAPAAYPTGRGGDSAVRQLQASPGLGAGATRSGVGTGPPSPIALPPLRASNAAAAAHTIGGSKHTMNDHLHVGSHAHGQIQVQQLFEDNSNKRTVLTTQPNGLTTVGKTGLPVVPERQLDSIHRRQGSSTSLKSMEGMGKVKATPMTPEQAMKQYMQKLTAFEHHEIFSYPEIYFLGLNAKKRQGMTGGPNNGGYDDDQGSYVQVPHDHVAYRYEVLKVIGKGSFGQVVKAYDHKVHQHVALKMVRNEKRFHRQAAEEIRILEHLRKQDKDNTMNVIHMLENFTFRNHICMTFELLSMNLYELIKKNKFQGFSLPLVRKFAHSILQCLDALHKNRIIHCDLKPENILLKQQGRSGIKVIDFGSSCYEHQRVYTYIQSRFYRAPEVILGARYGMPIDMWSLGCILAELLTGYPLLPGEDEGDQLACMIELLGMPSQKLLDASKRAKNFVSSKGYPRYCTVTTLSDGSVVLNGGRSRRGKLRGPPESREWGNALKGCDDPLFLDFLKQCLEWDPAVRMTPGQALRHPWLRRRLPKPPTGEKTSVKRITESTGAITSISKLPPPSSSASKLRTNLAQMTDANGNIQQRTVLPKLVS
Procedure: as §1

Tie2(R849W)(h) = molecular target: T3, Tie2(R849W)(h) (Homo sapiens, UniProt Q02763, R849W); experiment: Kinase panel activity; format: biochemical; details: 0.1 μM, ATP Km
T3 construct: purchased Millipore (KinaseProfiler service)
Procedure: as §1

CK1γ1(h) = CK1γ1(h) (Homo sapiens, UniProt Q9HCP0); experiment: Kinase panel activity; format: biochemical; details: 0.1 μM, ATP Km
Sequence of CK1γ1(h) (Q9HCP0 whole entry): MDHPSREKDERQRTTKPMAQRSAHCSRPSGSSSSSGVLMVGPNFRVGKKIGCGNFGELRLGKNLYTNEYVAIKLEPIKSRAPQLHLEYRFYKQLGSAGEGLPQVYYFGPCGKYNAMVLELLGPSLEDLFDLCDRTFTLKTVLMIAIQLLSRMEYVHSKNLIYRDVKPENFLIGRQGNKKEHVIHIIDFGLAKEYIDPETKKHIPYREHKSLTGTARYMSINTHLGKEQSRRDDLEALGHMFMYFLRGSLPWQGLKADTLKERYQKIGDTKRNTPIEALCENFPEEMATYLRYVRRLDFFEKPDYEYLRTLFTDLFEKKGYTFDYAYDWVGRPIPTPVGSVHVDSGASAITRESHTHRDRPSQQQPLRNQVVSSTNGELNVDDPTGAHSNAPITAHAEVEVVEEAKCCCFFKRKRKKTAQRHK
Procedure: as §1

B1k(m) = B1k(m) (Mus musculus, UniProt P16277); experiment: Kinase panel activity; format: biochemical; details: 0.1 μM, ATP Km
Sequence of B1k(m) (P16277 whole entry): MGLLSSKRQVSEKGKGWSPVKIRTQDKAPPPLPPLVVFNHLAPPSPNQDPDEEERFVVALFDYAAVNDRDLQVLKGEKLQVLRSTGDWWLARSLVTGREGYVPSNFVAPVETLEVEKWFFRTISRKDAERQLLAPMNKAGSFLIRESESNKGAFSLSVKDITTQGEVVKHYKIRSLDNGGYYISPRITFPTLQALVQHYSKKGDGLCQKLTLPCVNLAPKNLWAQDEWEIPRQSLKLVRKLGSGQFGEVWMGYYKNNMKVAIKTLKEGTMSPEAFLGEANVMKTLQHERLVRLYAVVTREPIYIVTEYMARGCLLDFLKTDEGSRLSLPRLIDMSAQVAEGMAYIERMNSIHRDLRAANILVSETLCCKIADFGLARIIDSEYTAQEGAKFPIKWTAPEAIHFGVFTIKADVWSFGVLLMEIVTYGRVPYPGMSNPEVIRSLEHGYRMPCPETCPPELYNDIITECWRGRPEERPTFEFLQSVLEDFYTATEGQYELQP
Procedure: as §1

PKD2(h) = PKD2(h) (Homo sapiens, UniProt Q9BZL6); experiment: Kinase panel activity; format: biochemical; details: 0.1 μM, ATP Km
Sequence of PKD2(h) (Q9BZL6 whole entry): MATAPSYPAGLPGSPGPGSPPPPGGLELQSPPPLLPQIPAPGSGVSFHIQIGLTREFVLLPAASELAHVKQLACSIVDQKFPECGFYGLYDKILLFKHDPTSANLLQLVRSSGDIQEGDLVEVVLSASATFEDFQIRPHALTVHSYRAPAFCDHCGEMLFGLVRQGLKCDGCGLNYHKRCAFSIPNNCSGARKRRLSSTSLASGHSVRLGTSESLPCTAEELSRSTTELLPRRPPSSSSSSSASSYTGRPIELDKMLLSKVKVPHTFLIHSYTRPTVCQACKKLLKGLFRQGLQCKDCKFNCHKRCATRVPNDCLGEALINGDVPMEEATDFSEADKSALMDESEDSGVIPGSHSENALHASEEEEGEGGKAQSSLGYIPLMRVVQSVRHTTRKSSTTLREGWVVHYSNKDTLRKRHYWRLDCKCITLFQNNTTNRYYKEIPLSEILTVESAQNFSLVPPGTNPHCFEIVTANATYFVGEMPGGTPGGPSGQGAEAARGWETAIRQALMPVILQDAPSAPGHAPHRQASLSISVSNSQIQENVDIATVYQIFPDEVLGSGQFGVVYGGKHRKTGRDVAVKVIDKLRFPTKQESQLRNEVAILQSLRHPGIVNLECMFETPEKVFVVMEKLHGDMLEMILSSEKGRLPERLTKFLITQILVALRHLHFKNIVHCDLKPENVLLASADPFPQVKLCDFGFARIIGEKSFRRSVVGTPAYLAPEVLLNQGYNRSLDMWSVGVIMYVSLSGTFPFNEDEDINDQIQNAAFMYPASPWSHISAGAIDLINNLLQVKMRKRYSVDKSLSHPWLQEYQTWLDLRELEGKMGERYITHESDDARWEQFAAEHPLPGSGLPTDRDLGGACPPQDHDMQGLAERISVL
Procedure: as §1

CaMKI(h) = CaMKI(h) (Homo sapiens, UniProt Q14012); experiment: Kinase panel activity; format: biochemical; details: 0.1 μM, ATP Km
Procedure: as §1

Met(D1246N)(h) = molecular target: T4, Met(D1246N)(h) (Homo sapiens, UniProt P08581, D1228N); experiment: Kinase panel activity; format: biochemical; details: 0.1 μM, ATP Km
T4 construct: purchased Millipore (KinaseProfiler service)
Procedure: as §1

LOK(h) = LOK(h) (Homo sapiens, UniProt O94804); experiment: Kinase panel activity; format: biochemical; details: 0.1 μM, ATP Km
Procedure: as §1

PTK5(h) = molecular target: T5, PTK5(h) (Homo sapiens, UniProt P42685); experiment: Kinase panel activity; format: biochemical; details: 0.1 μM, ATP Km
T5 construct: purchased Millipore (KinaseProfiler service)
Procedure: as §1

Src(T341M)(h) = molecular target: T6, Src(T341M)(h) (Homo sapiens, UniProt P12931, T341M); experiment: Kinase panel activity; format: biochemical; details: 0.1 μM, ATP Km
T6 construct: purchased Millipore (KinaseProfiler service)
Procedure: as §1

Rsk3(h) = molecular target: T7, Rsk3(h) (Homo sapiens, UniProt Q15349); experiment: Kinase panel activity; format: biochemical; details: 0.1 μM, ATP Km
T7 construct: purchased Millipore (KinaseProfiler service)
Procedure: as §1

Lyn(m) = Lyn(m) (Mus musculus, UniProt P25911); experiment: Kinase panel activity; format: biochemical; details: 0.1 μM, ATP Km
Procedure: as §1

HIPK2(h) = HIPK2(h) (Homo sapiens, UniProt Q9H2X6); experiment: Kinase panel activity; format: biochemical; details: 0.1 μM, ATP Km
Procedure: as §1

Yes(h) = Yes(h) (Homo sapiens, UniProt P07947); experiment: Kinase panel activity; format: biochemical; details: 0.1 μM, ATP Km
Procedure: as §1

PDK1(h) = PDK1(h) (Homo sapiens, UniProt O15530); experiment: Kinase panel activity; format: biochemical; details: 0.1 μM, ATP Km
Procedure: as §1

CK2(h) = CK2(h) (Homo sapiens, UniProt P68400); experiment: Kinase panel activity; format: biochemical; details: 0.1 μM, ATP Km
Procedure: as §1

PKCι(h) = PKCι(h) (Homo sapiens, UniProt P41743); experiment: Kinase panel activity; format: biochemical; details: 0.1 μM, ATP Km
Procedure: as §1

ULK2(h) = ULK2(h) (Homo sapiens, UniProt Q8IYT8); experiment: Kinase panel activity; format: biochemical; details: 0.1 μM, ATP Km
Sequence of ULK2(h) (Q8IYT8 whole entry): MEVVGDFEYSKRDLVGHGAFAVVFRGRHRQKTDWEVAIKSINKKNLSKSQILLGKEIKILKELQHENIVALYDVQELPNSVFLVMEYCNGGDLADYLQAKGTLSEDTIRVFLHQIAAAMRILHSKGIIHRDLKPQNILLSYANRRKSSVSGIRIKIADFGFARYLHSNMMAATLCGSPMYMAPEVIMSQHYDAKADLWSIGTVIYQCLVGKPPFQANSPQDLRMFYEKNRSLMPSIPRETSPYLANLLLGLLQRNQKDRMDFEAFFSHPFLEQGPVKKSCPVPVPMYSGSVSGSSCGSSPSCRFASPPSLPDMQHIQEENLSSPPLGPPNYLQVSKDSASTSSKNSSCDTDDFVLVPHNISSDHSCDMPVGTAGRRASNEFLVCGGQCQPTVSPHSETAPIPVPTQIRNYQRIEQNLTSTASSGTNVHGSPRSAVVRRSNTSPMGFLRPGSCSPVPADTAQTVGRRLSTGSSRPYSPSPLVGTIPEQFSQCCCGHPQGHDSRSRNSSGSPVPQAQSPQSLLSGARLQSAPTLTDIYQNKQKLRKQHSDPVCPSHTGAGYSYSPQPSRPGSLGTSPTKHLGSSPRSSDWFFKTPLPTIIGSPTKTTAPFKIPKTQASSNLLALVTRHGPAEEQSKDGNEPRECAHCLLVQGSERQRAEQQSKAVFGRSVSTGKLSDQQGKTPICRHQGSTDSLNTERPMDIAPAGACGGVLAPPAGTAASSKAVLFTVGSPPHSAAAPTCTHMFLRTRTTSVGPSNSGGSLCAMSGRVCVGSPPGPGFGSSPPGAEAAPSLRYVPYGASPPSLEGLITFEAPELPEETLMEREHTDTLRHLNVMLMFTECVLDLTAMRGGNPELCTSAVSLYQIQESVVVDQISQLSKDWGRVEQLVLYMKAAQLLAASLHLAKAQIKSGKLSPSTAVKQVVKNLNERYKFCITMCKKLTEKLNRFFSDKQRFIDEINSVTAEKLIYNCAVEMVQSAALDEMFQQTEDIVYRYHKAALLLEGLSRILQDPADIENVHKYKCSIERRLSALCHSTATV
Procedure: as §1

Tie2(h) = molecular target: T8, Tie2(h) (Homo sapiens, UniProt Q02763); experiment: Kinase panel activity; format: biochemical; details: 0.1 μM, ATP Km
T8 construct: purchased Millipore (KinaseProfiler service)
Procedure: as §1

EphA8(h) = molecular target: T9, EphA8(h) (Homo sapiens, UniProt P29322); experiment: Kinase panel activity; format: biochemical; details: 0.1 μM, ATP Km
T9 construct: purchased Millipore (KinaseProfiler service)
Procedure: as §1

BRK(h) = BRK(h) (Homo sapiens, UniProt Q13882); experiment: Kinase panel activity; format: biochemical; details: 0.1 μM, ATP Km
Procedure: as §1

SAPK2a(T106M)(h) = molecular target: T10, SAPK2a(T106M)(h) (Homo sapiens, UniProt Q16539, T106M); experiment: Kinase panel activity; format: biochemical; details: 0.1 μM, ATP Km
T10 construct: purchased Millipore (KinaseProfiler service)
Procedure: as §1

CaMKIV(h) = CaMKIV(h) (Homo sapiens, UniProt Q16566); experiment: Kinase panel activity; format: biochemical; details: 0.1 μM, ATP Km
Procedure: as §1

IKKβ(h) = IKKβ(h) (Homo sapiens, UniProt O14920); experiment: Kinase panel activity; format: biochemical; details: 0.1 μM, ATP Km
Procedure: as §1

CSK(h) = CSK(h) (Homo sapiens, UniProt P41240); experiment: Kinase panel activity; format: biochemical; details: 0.1 μM, ATP Km
Procedure: as §1

BrSK1(h) = BrSK1(h) (Homo sapiens, UniProt Q8TDC3); experiment: Kinase panel activity; format: biochemical; details: 0.1 μM, ATP Km
Sequence of BrSK1(h) (Q8TDC3 whole entry): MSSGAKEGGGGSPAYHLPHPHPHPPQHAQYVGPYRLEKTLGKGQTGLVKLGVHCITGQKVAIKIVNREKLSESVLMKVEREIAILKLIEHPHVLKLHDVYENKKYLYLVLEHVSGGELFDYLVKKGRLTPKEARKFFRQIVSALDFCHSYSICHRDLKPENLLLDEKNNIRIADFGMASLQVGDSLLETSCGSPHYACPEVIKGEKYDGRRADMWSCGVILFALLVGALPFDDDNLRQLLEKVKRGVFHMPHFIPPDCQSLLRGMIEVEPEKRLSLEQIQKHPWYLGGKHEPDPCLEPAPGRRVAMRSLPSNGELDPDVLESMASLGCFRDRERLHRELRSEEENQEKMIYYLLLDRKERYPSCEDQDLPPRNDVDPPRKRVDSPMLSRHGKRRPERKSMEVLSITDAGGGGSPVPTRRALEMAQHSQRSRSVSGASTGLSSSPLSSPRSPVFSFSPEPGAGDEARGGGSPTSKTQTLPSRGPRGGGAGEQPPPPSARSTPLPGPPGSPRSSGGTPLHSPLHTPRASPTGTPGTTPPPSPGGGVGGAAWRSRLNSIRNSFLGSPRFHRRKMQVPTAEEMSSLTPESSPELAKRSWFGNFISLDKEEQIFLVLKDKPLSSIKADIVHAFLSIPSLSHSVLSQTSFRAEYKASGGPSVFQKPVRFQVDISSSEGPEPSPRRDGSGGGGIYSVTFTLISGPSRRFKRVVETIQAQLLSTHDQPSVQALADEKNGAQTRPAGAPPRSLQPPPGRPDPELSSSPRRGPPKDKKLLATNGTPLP
Procedure: as §1

ROCK-II(r) = molecular target: T11, ROCK-II(r) (Rattus norvegicus, UniProt Q62868); experiment: Kinase panel activity; format: biochemical; details: 0.1 μM, ATP Km
T11 construct: purchased Millipore (KinaseProfiler service)
Procedure: as §1

PKCα(h) = PKCα(h) (Homo sapiens, UniProt P17252); experiment: Kinase panel activity; format: biochemical; details: 0.1 μM, ATP Km
Procedure: as §1

ROCK-II(h) = molecular target: T12, ROCK-II(h) (Homo sapiens, UniProt O75116); experiment: Kinase panel activity; format: biochemical; details: 0.1 μM, ATP Km
T12 construct: purchased Millipore (KinaseProfiler service)
Procedure: as §1

Ab1(M351T)(h) = Ab1(M351T)(h) (Homo sapiens, UniProt P00519, M351T); experiment: Kinase panel activity; format: biochemical; details: 0.1 μM, ATP Km
Procedure: as §1

Q: Which results are given for Cc1cc2c(F)c(Oc3nc(Nc4cc(C5CC5)[nH]n4)cc(N4CCN(C)CC4)n3)cc(F)c2[nH]1 [NTW-3475]?
A: anti-tumor effect against CML [1]: strong anti-tumor effect; Activity % (CK1(y)): 100%; Activity % (GRK5(h)): 100%; Activity % (ErbB4(h)): 90%; Activity % (BrSK2(h)): 44%; Activity % (DYRK2(h)): 96%; Activity % (Tie2(R849W)(h)): 6%; Activity % (CK1γ1(h)): 96%; Activity % (B1k(m)): 14%; Activity % (PKD2(h)): 94%; Activity % (CaMKI(h)): 90%; Activity % (Met(D1246N)(h)): 20%; Activity % (LOK(h)): 20%; Activity % (PTK5(h)): 17%; Activity % (Src(T341M)(h)): 1%; Activity % (Rsk3(h)): 25%; Activity % (Lyn(m)): 1%; Activity % (HIPK2(h)): 101%; Activity % (Yes(h)): 0%; Activity % (PDK1(h)): 103%; Activity % (CK2(h)): 85%; Activity % (PKCι(h)): 105%; Activity % (ULK2(h)): 46%; Activity % (Tie2(h)): 0%; Activity % (EphA8(h)): 16%; Activity % (BRK(h)): 33%; Activity % (SAPK2a(T106M)(h)): 95%; Activity % (CaMKIV(h)): 106%; Activity % (IKKβ(h)): 109%; Activity % (CSK(h)): 75%; Activity % (BrSK1(h)): 53%; Activity % (ROCK-II(r)): 42%; Activity % (PKCα(h)): 95%; Activity % (ROCK-II(h)): 58%; Activity % (Ab1(M351T)(h)): −2%
